Measured values reported in patent US20110201558A1, “Anaplerotic Therapy for Alzheimer's Disease and the Aging Brain” (Baylor Research Institute, priority 2009, published 2011).

Key:
[1] = test system: mouse brain; conditions: infusion of propionyl-CoA precursors; compared with heptanoate, BKP, or propionate; cited from earlier work
[2] = set-up: species or system human; conditions: in vivo
Excerpt: For example, when using C7 as the source of odd-chain fatty acids these can be provided in the form of a triglyceride, e.g., tri-heptanoin. The triglyceride triheptanoin is provided in a concentration sufficient to provide a beneficial effect is most useful in this aspect of the present invention. The seven-carbon fatty acid may be provided, e.g.:
Goals have been set using 4 g/kg (within ideal body weight (IBW) range) for infants, children, and some adolescents. Goals have been set using 2 g/kg (within IBW range) for adolescents. Goals have been set using 2 g/kg (within IBW range) for adults; but toleration is 1-1.2 g per kg (which is 35% kcal of estimated needs).

[3] = test system: patients with inherited disorders of fat and glycogen metabolism as well as pyruvate carboxylase deficiency; conditions: cited from earlier work

Compound | anaplerosis (stimulation of the CAC and energy production) in mouse brain [1] | toleration [2] | indirect measures of energy metabolism in the brain and peripheral organs such as muscle and heart [3]
CCCCC(=O)O [pentanoate] | superior |  | 
CCCCCCC(=O)OCC(COC(=O)CCCCCC)OC(=O)CCCCCC [triheptanoin] |  | 1-1.2 g per kg | positive effects
